Source: patent publication US20050020665A1, “Pharmaceutical composition for treating multiple sclerosis” (priority 2001, published 2005)
Read-outs that look alike come from different tables or passages of the source.

What was measured:
[1] = tested on: experimental allergic encephalomyelitis (EAE); conditions: cited from earlier work
MS patients [2] = conditions: cited from earlier work
[3] = tested on: patients having clinically active MS; assay: treatment trial of MS patients with zileuton (Zyflo Filmtab), three years, with brain nuclear magnetic resonance using Magnevist; format: in vivo, humans
Procedure: 15 patients having clinically active MS were treated with zileuton in a treatment trial. 15 MS patients without this treatment served as a control. One tablet of Zyflo™Filmtab® was administered to each four times a day.

[4] = tested on: inflammatory reactions of MS in the animal model; conditions: cited from earlier work
MS patients [5] = conditions: cited from earlier work; remark: listed apart in the source
[6] = 15 MS patients, one Zyflo Filmtab tablet four times a day, three years, compared with 15 MS patients without this treatment

SMILES: Cn1cnc([N+](=O)[O-])c1Sc1ncnc2[nH]cnc12 [azothioprin]
- effect in the EAE animal test [1]: showed promising indications
- effect in the treatment of MS patients (MS patients [2]): not convincing

SMILES: CC(c1cc2ccccc2s1)N(O)C(N)=O (centres unmarked) [zileuton, 1-(1-benzo[b]thien-2-ylethyl)-1-hydroxy urea]
- chronic progression [3, 6]: significantly decreased
- frequency of attacks [3, 6]: significantly decreased
- new or acute centres of inflammation absorbing the contrast agent (brain nuclear magnetic resonance) ([3]; every six months, contrast agent Magnevist): No new or acute centres absorbing the contrast agent could be determined

SMILES: O=C(O)c1cc(/N=N/c2ccc(S(=O)(=O)Nc3ccccn3)cc2)ccc1O [azulfidine]
- effect in the animal model (suppression of inflammatory reactions of MS) [4]: successful in the animal model
- effect of treatment in MS patients (MS patients [5]; first 18 months of treatment, double blind study): exceptionally beneficial effect could be proven
- effect of treatment in MS patients (MS patients [5]; three years after the end of the study): this effect could no longer be proven
